The target of assay [1] is T1, PDK1 (Homo sapiens, UniProt O15530).
T1 construct: His6 (N)
T1 sequence (O15530 51-556 limits assumed): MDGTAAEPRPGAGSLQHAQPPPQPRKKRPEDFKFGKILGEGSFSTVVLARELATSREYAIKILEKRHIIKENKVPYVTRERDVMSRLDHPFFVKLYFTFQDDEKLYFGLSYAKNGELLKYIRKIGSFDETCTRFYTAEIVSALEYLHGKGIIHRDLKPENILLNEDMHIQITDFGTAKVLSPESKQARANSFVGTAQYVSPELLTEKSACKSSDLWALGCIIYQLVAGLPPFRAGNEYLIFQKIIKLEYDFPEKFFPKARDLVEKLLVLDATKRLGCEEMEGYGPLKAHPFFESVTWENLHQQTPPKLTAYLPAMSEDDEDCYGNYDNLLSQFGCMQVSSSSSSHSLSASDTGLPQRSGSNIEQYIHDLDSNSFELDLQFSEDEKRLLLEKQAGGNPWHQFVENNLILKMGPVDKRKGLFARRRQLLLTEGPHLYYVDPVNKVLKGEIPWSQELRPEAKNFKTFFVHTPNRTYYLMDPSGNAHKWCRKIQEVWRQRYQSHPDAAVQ
Kind of assay: Test for the inhibition of PDK1 (flashplate, 33P-ATP). The assay is classed as biochemical. The conditions noted are these: enzyme. The protocol:
The experimental batches are carried out in a flashplate system with 384 wells/microtitration plate.
In each case, the PDK1 sample His6-PDK1(1-50)(3.4 nM), the PDK1 substrate biotin-bA-bA-[…] (400 nM), 4 μM ATP (with 0.2 μCi of ^33P-ATP/well) and the test substance in 50 μl of conventional experimental solution per well are incubated at 30° C. for 60 min. The test substances are employed in corresponding concentrations (if desired in a dilution series). The control is carried out without test substance. The reaction is stopped using standard methods and washed. The activity of the kinase is measured via the incorporated radioactivity in top count. In order to determine the non-specific kinase reaction (blank value), the experimental batches are carried out in the presence of 100 nM staurosporin.
The radioactivity (decompositions per minute) of the blank value (no use of test substance in the presence of staurosporin) is subtracted from all other radioactivity values. The controls (kinase activity without test substance) are set equal to 100 percent and all other radioactivity values (after subtracting the blank value) are expressed set in relation thereto (for example in % of the control).
IC50 values (50% inhibition) are determined with the aid of statistics programmes, such as, for example, RS1.

Assay [2] addresses T2, PDK1 (Homo sapiens, UniProt O15530).
T2 construct: endogenous in cells; host or cells: commercially available colon carcinoma, ovary, prostate or breast cell lines (none named)
T2 sequence (O15530 1-556): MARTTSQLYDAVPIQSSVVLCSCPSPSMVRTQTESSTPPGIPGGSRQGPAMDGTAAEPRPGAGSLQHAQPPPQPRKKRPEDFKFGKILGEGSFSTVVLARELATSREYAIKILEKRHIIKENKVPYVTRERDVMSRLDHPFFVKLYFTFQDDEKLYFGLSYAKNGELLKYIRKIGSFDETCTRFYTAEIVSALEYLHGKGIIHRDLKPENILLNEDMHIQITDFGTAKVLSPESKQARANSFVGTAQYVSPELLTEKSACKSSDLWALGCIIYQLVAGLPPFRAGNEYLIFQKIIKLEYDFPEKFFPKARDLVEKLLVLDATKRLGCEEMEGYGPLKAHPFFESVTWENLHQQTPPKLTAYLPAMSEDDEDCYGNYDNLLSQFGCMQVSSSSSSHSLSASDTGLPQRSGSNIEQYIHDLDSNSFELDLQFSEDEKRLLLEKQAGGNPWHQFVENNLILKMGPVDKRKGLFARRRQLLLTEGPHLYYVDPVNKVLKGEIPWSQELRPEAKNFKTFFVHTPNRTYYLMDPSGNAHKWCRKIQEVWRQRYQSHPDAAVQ
Kind of assay: IC50 PDK1 (cell). The assay is classed as cell-based. The protocol: The cells are sown in a suitable cell density in microtitre plates (96-well format) and the test substances are added in the form of a concentration series. After four further days of cultivation in serum-containing medium, the tumour cell proliferation/tumour cell vitality can be determined by means of an Alamar Blue test system. A defined number of cells (for example 2000 cells) per culture/well in a volume of 180 μl of culture medium are sown in microtitre plates (96 well cell-culture plates) using a multichannel pipette. The cells are subsequently cultivated in a CO2 incubator (37° C. and 10% CO2). The test substances are dissolved, for example, in DMSO and subsequently employed in corresponding concentration (if desired in a dilution series) in the cell culture medium. The dilution steps can be adapted depending on the efficiency of the active ingredients and the desired spread of the concentrations. Cell culture medium is added to the test substances in corresponding concentrations. The addition of the test substances to the cells can take place on the same day as the sowing of the cells. To this end, in each case 20 μl of substance solution from the predilution plate are added to the cultures/wells. The cells are cultivated for a further 4 days at 37° Celsius and 10% CO2. In each case, 20 μl of Alamar Blue reagent are added per well, and the microtitre plates are incubated, for example, for a further seven hours in a CO2 incubator (at 37° C. and 10% CO2). The plates are measured in a reader with a fluorescence filter at a wavelength of 540 nm. The plates can be shaken gently immediately before the measurement. The absorbance value of the medium control (no cells and test substances used) is subtracted from all other absorbance values. The controls (cells without test substance) are set equal to 100 percent, and all other absorbance values are set in relation thereto (for example in % of control): Calculation: 100*(value with cells and test substance−value of medium control)/(value with cells−value of medium control) IC50 values (50% inhibition) are determined with the aid of statistics programs, such as, for example, RS1.

A further assay deals with T3, IRAK-1 (Homo sapiens, UniProt P51617).
T3 construct: His6 (N); Dr.Jaekel Pool B, 232Y08C1.IRK
T3 sequence (P51617 whole entry, species assumed): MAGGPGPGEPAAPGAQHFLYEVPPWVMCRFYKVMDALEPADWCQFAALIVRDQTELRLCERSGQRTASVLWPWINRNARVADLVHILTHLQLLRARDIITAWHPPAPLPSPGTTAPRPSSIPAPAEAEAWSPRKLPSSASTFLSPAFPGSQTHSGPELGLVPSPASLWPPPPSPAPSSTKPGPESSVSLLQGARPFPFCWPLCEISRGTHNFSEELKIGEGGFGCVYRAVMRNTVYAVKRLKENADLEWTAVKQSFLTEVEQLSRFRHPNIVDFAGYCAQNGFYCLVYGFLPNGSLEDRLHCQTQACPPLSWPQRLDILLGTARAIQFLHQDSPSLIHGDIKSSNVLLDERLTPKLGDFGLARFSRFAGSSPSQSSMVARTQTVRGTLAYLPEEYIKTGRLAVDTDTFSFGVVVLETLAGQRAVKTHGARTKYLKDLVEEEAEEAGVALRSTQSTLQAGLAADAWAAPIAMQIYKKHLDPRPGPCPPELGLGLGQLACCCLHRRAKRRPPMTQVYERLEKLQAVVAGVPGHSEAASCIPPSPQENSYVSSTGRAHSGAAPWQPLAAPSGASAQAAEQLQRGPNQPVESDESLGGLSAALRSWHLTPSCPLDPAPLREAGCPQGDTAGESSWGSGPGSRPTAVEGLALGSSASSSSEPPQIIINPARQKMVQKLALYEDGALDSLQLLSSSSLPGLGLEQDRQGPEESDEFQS
The experiment in a line: Test for the inhibition of IRAK1 (autophosphorylation, flashplate). It is filed as biochemical. The conditions noted are these: enzyme. The procedure:
(§1) The experimental batches are carried out in a flashplate system with 384 wells/microtitre plate. In each case, in order to investigate the inhibition of the autophosphorylation activity of IRAK1, the IRAK1 sample His6-IRAK1 (5.1 nM), 1 μM ATP (with 0.25 μCi of ^33P-ATP/well) and the test substance in 50 μl of conventional experimental solution per well are incubated at 22° C. for 180 min. The test substances are employed in corresponding concentrations (if desired in a dilution series). The control is carried out without test substance. The reaction is stopped using standard methods and washed. The activity of the kinase is measured via the incorporated radioactivity in top count. In order to determine the non-specific kinase reaction (blank value), the experimental batches are carried out in the presence of 1 μM staurosporin. The radioactivity (decompositions per minute) of the blank value (no use of test substance in the presence of 1 μM staurosporin) is subtracted from all other radioactivity values. The controls (kinase activity without test substance) are set equal to 100 percent and all other radioactivity values (after subtracting the blank value) are expressed set in relation thereto (for example in % of the control). IC50 values (50% inhibition) are determined with the aid of statistics programs, such as, for example, RS1.

The target in a further assay is T4, IRAK-4 (Homo sapiens, UniProt Q9NWZ3).
T4 construct: His6 (N); Dr.Jaekel
T4 sequence (Q9NWZ3 1-460): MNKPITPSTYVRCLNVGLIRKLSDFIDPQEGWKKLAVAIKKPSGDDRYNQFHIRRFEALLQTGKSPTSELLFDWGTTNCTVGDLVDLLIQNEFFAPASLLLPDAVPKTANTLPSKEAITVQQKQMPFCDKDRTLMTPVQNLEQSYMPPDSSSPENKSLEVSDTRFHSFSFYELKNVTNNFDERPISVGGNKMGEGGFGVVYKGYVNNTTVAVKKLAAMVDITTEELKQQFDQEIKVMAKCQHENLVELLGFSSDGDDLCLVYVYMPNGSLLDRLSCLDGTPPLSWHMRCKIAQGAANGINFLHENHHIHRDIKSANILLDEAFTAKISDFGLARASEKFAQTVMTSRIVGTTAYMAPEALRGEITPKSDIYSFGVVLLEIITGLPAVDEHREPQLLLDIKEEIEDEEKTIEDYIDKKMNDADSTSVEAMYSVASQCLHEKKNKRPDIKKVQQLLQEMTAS
Kind of assay: Test for the inhibition of IRAK4 (flashplate, 33P-ATP). It is filed as biochemical. The conditions noted are these: enzyme. The protocol: as §1, with “case,” for “case, in order to investigate”, “the IRAK4 sample His6-IRAK4 (7.3 nM),” for “the inhibition of”, “the biotinylated substrate peptide STK substrate 1-biotin (Cisbio Bioassays, France) (300” for “the autophosphorylation activity of IRAK1, the IRAK1 sample His6-IRAK1 (5.1”, “nM), 10” for “nM), 1”

Among the data in patent US8648201B2, “Aminopyridine derivatives for treating tumors and inflammatory diseases” (MERCK PATENT GmbH, priority 2009, dated 2014) are IC50 values, retold here.

pIC50: −log10 of the molar value.

For orientation: pIC50 means the negative decadic logarithm of the IC50, by convention in mol/L. Low readings indicate a large IC50, high ones a small IC50.

With `CC(C)(C)c1ccc2nc(-c3cc(-c4cnn(C5CCNCC5)c4)cnc3N)[nH]c2c1` [Compound A53], the pIC50 against PDK1 [1] was 7.00 to 9.00; against PDK1 [2], 5.00 to 7.00.

Regarding `Cn1cc(-c2cnc(N)c(-c3nc4ccc(C(O)c5ccccc5)cc4[nH]3)c2)cn1` (stereo not shown) [Compound A80], the pIC50 against PDK1 [1] is 7.00 to 9.00; against PDK1 [2], < 5.00.

Turning to `CC1CC(=O)NN=C1c1ccc2[nH]c(-c3cc(-c4cnn(C(C)C)c4)cnc3N)nc2c1` (stereo not shown) [Compound A11, 6-{2-[2-Amino-5-(1-isopropyl-1H-pyrazol-4-yl)pyridin-3-yl]-1H-benzimidazol-5-yl}-5-methyl-4,5-dihydro-2H-pyridazin-3-one], the figures for the pIC50 against PDK1 [1] and at PDK1 [2] were 7.00 to 9.00 and 5.00 to 7.00, respectively.

For the compound `Cn1cc(-c2cnc(N)c(-c3nc4c(O)cccc4[nH]3)c2)cn1` [Compound A102, 2-[2-Amino-5-(1-methyl-1H-pyrazol-4-yl)pyridin-3-yl]-1H-benzimidazol-4-ol], the pIC50 against PDK1 [1] is 7.00 to 9.00; at PDK1 [2], 5.00 to 7.00.

In the case of `Cn1cc(-c2cnc(N)c(-c3nc4ccc(F)cc4[nH]3)c2)cn1` [Compound A74], the pIC50 on PDK1 [1] is 7.00 to 9.00; at IRAK-1, 5.00 to 7.00; against IRAK-4 it was 5.00 to 7.00.

Regarding `CC1CC(=O)NN=C1c1ccc2[nH]c(-c3cc(-c4cnn(CCN5CCOCC5)c4)cnc3N)nc2c1` (stereo not shown) [Compound A9, 6-(2-{2-amino-5-[1-(2-morpholin-4-ylethyl)-1H-pyrazol-4-yl]-pyridin-3-yl}-1H-benzimidazol-5-yl)-5-methyl-4,5-dihydro-2H-pyridazin-3-one], the pIC50 against PDK1 [1] was 7.00 to 9.00; against PDK1 [2] it was 5.00 to 7.00.

As for `Cc1cccc2nc(-c3cc(-c4cnn(C5CCNCC5)c4)cnc3N)[nH]c12` [Compound A89, 3-(7-Methyl-1H-benzimidazol-2-yl)-5-(1-piperidin-4-yl-1H-pyrazol-4-yl)pyridin-2-ylamine], the pIC50 was 7.00 to 9.00 on PDK1 [1], 5.00 to 7.00 against IRAK-1 and 5.00 to 7.00 against IRAK-4.

In the case of `COc1cc2[nH]c(-c3cc(-c4cnn(CCN5CCOCC5)c4)cnc3N)nc2cc1F` [Compound A148, 3-(5-Fluoro-6-methoxy-1H-benzimidazol-2-yl)-5-[1-(2-morpholin-4-ylethyl)-1H-pyrazol-4-yl]pyridin-2-ylamine], the pIC50 on PDK1 [1] is 5.00 to 7.00; against IRAK-1, 5.00 to 7.00; against IRAK-4, 7.00 to 9.00.

Regarding `COc1cc2[nH]c(-c3cc(-c4cnn(C5CCNCC5)c4)cnc3N)nc2cc1F` [Compound A69], the pIC50 against PDK1 [1], at IRAK-1 and against IRAK-4 was 7.00 to 9.00 throughout.

In the case of `COc1cc2[nH]c(-c3cc(-c4cnn(CC(=O)N5CCCCC5)c4)cnc3N)nc2cc1F` [Compound A30, 2-{4-[6-amino-5-(5-fluoro-6-methoxy-1H-benzimidazol-2-yl)pyridin-3-yl]pyrazol-1-yl}-1-piperidin-1-ylethanone], the values for the negative-log IC50 (pIC50) against IRAK-1 and at IRAK-4 were 7.00 to 9.00 and 5.00 to 7.00, respectively.

Regarding `Cn1cc(-c2cnc(N)c(-c3nc4ccc(-c5ccc(=O)[nH]n5)cc4[nH]3)c2)cn1` [Compound A8, 6-{2-[2-Amino-5-(1-methyl-1H-pyrazol-4-yl)-pyridin-3-yl]-3H-benzimidazol-5-yl}-2H-pyridazin-3-one], the pIC50 against IRAK-1 and on IRAK-4 was 5.00 to 7.00 throughout.

Take `COc1cc2nc(-c3cc(-c4cnn(C)c4)cnc3N)[nH]c2cc1F` [Compound A78]: the negative-log IC50 (pIC50) against PDK1 [1] is 7.00 to 9.00; on IRAK-1 it was 7.00 to 9.00; against IRAK-4, 5.00 to 7.00.

On to `CCn1cc(-c2cnc(N)c(-c3nc4ccc(OC)cc4[nH]3)c2)cn1` [Compound A105, 5-(1-Ethyl-1H-pyrazol-4-yl)-3-(6-methoxy-1H-benzimidazol-2-yl)pyridin-2-ylamine], for which the negative logarithm of the IC50 (pIC50) at IRAK-1 and on IRAK-4 was 5.00 to 7.00 in each case.
